Source: article PMC5541792, “Simultaneous Determination of 11 Compounds in Gualou Guizhi Granule and Pharmacokinetics Study by UPLC-MS/MS” (Journal of Analytical Methods in Chemistry, 2017)

Tests used:
[1] = Stability of analytes in rat plasma samples (method validation); format: in vitro ADME; conditions: n = 6; for Autosampler stability (24 h) Mean: 4°C for 24 h; for Stability (24 h at room temperature) Mean: 25°C for 24 h; for Freeze-thaw stability (3 cycles) Mean: three freeze-thaw cycles at −80°C
Protocol: Stability of the analytes from plasma samples was performed by determining three different concentrations (low, middle, and high samples) in six replicates under different conditions. It included short-term stability which was assessed by keeping samples at room temperature (25°C) for 24 h, stability which was measured using samples stored at 4°C for 24 h, and freeze-thaw stability that was determined after three freeze-thaw cycles at −80°C.

[2] = Pharmacokinetic study in rats after oral administration of GLGZG (UPLC-MS/MS of plasma); format: in vivo, rat; conditions: for Plasma concentration-time behaviour (in words): rat plasma after oral GLGZG; for AUC(0–∞) / Tmax / MRT inf / half-life / Vd/F: rat plasma, male SD rats, oral GLGZG 3.6 g·(kg·day)^−1, n = 6; for MRT inf: read-out: MRT(0–∞) (converted); for half-life: read-out: T 1/2z; for Vd/F: read-out: Vz/F
Protocol: Chromatographic separation was performed on an Waters CORTECS C18 (2.1 × 100 mm, 1.6 μm) with the column temperature at 45°C. The mobile phase was composed of 0.1% formic acid in water (A) and acetonitrile (B) with a gradient program (0–0.5 min from 8% to 10% B; 0.5–2.5 min from 10% to 15% B; 2.5–4.0 min from 15% to 60% B; 4.0–5.0 min from 60% to 95% B; 5.0–6.5 min 95% B). The flow rate was 0.25 mL/min and the injection volume was 1 μL.
Mass spectrometry was operated using a Waters (Milford, MA) Xevo TQMS with an electrospray ion source (ESI) in the negative ion multiple reaction monitoring (MRM) mode. The other detailed MS parameters were as follows: drying gas: N2 (purity of 99.9%), 15 L/min, nebulizing gas: 50 L/min, capillary voltage: 2.5 kv.
Plasma samples (100 μL of plasma) and IS working solutions (10 μL of swertiamarin, kaempferol-3-O-rutinoside, and ginsenoside Rb1) were combined and briefly vortex-mixed for 3 min followed by the addition of 4-fold acetonitrile. Then the mixture was centrifuged at 12000 rpm for 10 min. The supernatant was transferred to a clean tube and concentrated up to dryness; the residue was dissolved in 100 μL 50% methanol. Finally, 1 μL aliquot was injected into UPLC-MS/MS system for analysis.
Six male SD rats, weighing 250 ± 20 g, were provided by Experimental Animal Research Center of Fujian TCM University (Fuzhou, China). And they were housed at controlled environmental conditions (temperature: 23 ± 2°C, relative humidity: 55 ± 10%) with free access to standard laboratory food and water. The rats were fasted for 12 h but with access to water before being given GLGZG (3.6 g·(kg·day)^−1). Blood samples of 0.3 mL were collected in heparin containing tubes from epicanthic veins of rats by capillary tube before dose (0 h) and at 5 min, 10 min, 20 min, 0.5 h, 1 h, 1.5 h, 2 h, 3 h, 6 h, 9 h, and 12 h. Then they were centrifuged at 12000 rpm for 10 min. The supernatant liquor was collected and frozen at −20°C until use.
The validated UPLC-MS/MS method was successfully applied to the PK studies of eleven analytes following oral administration of GLGZG to individual male rats (n = 6). The main pharmacokinetic parameters were summarized in Table 8 and the mean plasma concentration-time profiles of the eleven analytes were illustrated in Figure 3.

[3] = middle QC nominal concentration

SMILES | Autosampler stability (24 h) Mean ([1]; low QC nominal concentration) | Autosampler stability (24 h) Mean [1, 3] | Stability (24 h at room temperature) Mean ([1]; high QC nominal concentration) | Stability (24 h at room temperature) Mean ([1]; low QC nominal concentration) | Stability (24 h at room temperature) Mean [1, 3] | Freeze-thaw stability (3 cycles) Mean ([1]; high QC nominal concentration) | Freeze-thaw stability (3 cycles) Mean ([1]; low QC nominal concentration) | Freeze-thaw stability (3 cycles) Mean [1, 3] | Plasma concentration-time behaviour (in words) [2] | AUC(0–∞) [2] | Tmax [2] | MRT inf [2] | half-life [2] | Vd/F [2] | Autosampler stability (24 h) Mean ([1]; high QC nominal concentration)
CC1(C)[C@@H](O[C@H]2O[C@H](C(=O)O)[C@@H](O)[C@H](O)[C@H]2O[C@@H]2O[C@H](C(=O)O)[C@@H](O)[C@H](O)[C@H]2O)CC[C@]2(C)[C@H]3C(=O)C=C4[C@@H]5C[C@@](C)(C(=O)O)CC[C@]5(C)CC[C@@]4(C)[C@]3(C)CC[C@@H]12 [Glycyrrhizic acid, glycyrrhizic acid] | 97.71% | 92.82% | 94.94% | 96.05% | 92.18% | 98.20% | 98.31% | 108.78% | double-peak phenomenon | 1262.61 ± 158.73 mg·L/min | 0.9 h | 4.4 h | 2.86 ± 0.561 h | 3.92 ± 1.44 L/kg | –
C[C@@]12C[C@@]3(O)O[C@@H](O1)[C@]1(COC(=O)c4ccccc4)[C@H]3C[C@@]12O[C@@H]1O[C@H](CO)[C@@H](O)[C@H](O)[C@H]1O [Paeoniflorin, paeoniflorin] | 103.46% | 98.29% | 109.75% | 105.66% | 91.25% | – | 97.71% | 92.82% | – | 904.73 ± 317.76 mg·L/min | 1.33 h | 3.93 h | 2.38 ± 0.502 h | 6.31 ± 1.63 L/kg | 113.81%
CC12CC(O)C3CC1(OC1OC(CO)C(O)C(O)C1O)C3(COC(=O)c1ccccc1)C(=O)O2 (stereo not drawn) [Albiflorin, albiflorin] | 97.93% | 111.49% | 108.45% | 94.78% | 93.66% | 98.89% | 99.77% | 108.14% | – | 1263.37 ± 306.91 mg·L/min | 1 h | 3.59 h | 2.13 ± 0.596 h | 2.67 ± 0.87 L/kg | 107.72%
O=C(/C=C/c1ccc(O[C@@H]2O[C@H](CO)[C@@H](O)[C@H](O)[C@H]2O)cc1)c1ccc(O)cc1O [Isoliquiritin, isoliquiritin] | – | 97.14% | – | – | 99.28% | 108.88% | 98.98% | 94.03% | – | 27.17 ± 2.69 mg·L/min | 0.472 h | 5.66 h | 4.6 ± 0.866 h | 297 ± 70 L/kg | 95.62%
CC1(C)[C@@H](O)CC[C@]2(C)[C@H]3C(=O)C=C4[C@@H]5C[C@@](C)(C(=O)O)CC[C@]5(C)CC[C@@]4(C)[C@]3(C)CC[C@@H]12 [Glycyrrhetinic acid, glycyrrhetinic acid] | – | – | – | – | – | – | – | – | – | 2041.10 ± 706.58 mg·L/min | 10 h | 11.8 h | 2.2 ± 0.472 h | – | –
O=C(/C=C/c1ccc(O)cc1)c1ccc(O)cc1O [Isoliquiritigenin, isoliquiritigenin] | 106.19% | 91.71% | – | 99.77% | 93.66% | 109.21% | 99.28% | 107.70% | low in the blood | 8.52 ± 0.98 mg·L/min | 0.5 h | 4.76 h | 3.4 ± 0.675 h | 700 ± 187 L/kg | 108.30%
O=C1C[C@@H](c2ccc(O)cc2)Oc2cc(O)ccc21 [Liquiritigenin, liquiritigenin] | 98.45% | 93.53% | 97.03% | – | – | – | – | – | – | 20.38 ± 4.30 mg·L/min | 0.445 h | 4.92 h | 3.87 ± 0.477 h | 341 ± 73.6 L/kg | 97.16%
O=C1C[C@@H](c2ccc(O[C@@H]3O[C@H](CO)[C@@H](O)[C@H](O)[C@H]3O)cc2)Oc2cc(O)ccc21 [Liquiritin, liquiritin] | – | 92.30% | 106.73% | 95.70% | – | 97.91% | 101.75% | 109.75% | – | 54.87 ± 14.40 mg·L/min | – | 5.93 h | 5.16 ± 1.11 h | 167 ± 35.9 L/kg | 90.84%
